Reference: US11426422B2, “SHP2 inhibitors and methods of use thereof” (Research Development Foundation, priority 2018, dated 2022)
Where no end group is shown, it is not given here. [ ]: non-standard residue; d: D form. pY = N[C@@H](Cc1ccc(OP(=O)(O)O)cc1)C(=O)O

Tests used:
[1] = target: T1, AP2M1 (residues 160-435) (Homo sapiens, UniProt Q96CW1); assay: in vitro peptide pull-down of AP2M1 with IRS1 peptides; type: binding; conditions: peptide beads pull-down, SDS-PAGE, Coomassie
T1 construct: The AP2M1 fragment (residues 160-435) was cloned into a modified pET28a; His6 (N, cleaved yes); made in house; host or cells: E. coli BL21(DE3)
T1 sequence (Q96CW1 160-435): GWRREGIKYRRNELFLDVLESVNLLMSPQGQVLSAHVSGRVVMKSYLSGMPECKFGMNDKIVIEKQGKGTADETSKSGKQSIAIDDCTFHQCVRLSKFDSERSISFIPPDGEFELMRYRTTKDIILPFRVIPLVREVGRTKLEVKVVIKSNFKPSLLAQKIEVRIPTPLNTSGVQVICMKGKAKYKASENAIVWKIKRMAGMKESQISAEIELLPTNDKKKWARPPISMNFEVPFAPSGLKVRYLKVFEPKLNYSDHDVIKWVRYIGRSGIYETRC
Description: FIGS. 2A-I. The MAPK pathway and SHP2 promote insulin-activated IR endocytosis. (FIG. 2A) HepG2 cells expressing IR-GFP WT were starved, treated with the indicated inhibitors for 2 h, treated without or with 100 nM insulin for 20 min, and stained with anti-GFP (IR; green) and DAPI (blue). See also FIG. 7A for representative images. Quantification of the ratios of PM and IC IR-GFP signals of cells was shown (mean±SD; *p<0.0001). (FIG. 2B) Binding of IRS1 peptides to AP2M1 (residues 160-435). Input and proteins bound to IRS1-peptide beads were analyzed by SDS-PAGE and stained with Coomassie (CBB). The relative band intensities are shown below (mean±SD; n=4 independent experiments). (FIG. 2C) ITC analysis of binding between IRS1 peptides and AP2M1 (residue 160-435), with the Kd indicated. (FIG. 2D) The IRS1 peptides were incubated with active SHP2 for the indicated durations, spotted onto membranes, and detected with the anti-pY612-IRS1 antibody. (FIG. 2E) Quantification of the relative SHP2 activity in FIG. 2D (mean±SD; n=4 independent experiments; *p<0.0001). (FIG. 2F) Model of the regulation of insulin-activated IR endocytosis by a phosphorylation switch on IRS1/2. Insulin-bound IR phosphorylates itself and IRS1/2, and activates the PI3K-AKT and MAPK pathways. SHP2 acts upstream of RAS-RAF and promotes the activation of MAPK pathway. p31^comet binds to the IR-bound MAD2 and blocks IR-AP2 association to prevent premature IR endocytosis. In feedback regulation, activated ERK1/2 phosphorylate S616 and other sites on IRS1. […]
(§1) For GST pull-down assays of in vitro translated (IVT) IRS1 proteins, beads bound to GST-AP2M1 or GST were incubated with IVT products diluted in the cell lysis buffer at 4° C. for 2 h. After incubation and washing, proteins bound to beads were eluted with the SDS loading buffer, resolved with SDS-PAGE, and detected with Coomassie staining or immunoblotting with the appropriate antibodies. […]

[2] = test system: HepG2 cells expressing IR-GFP mutants; assay: cellular localization of IR-GFP mutants in HepG2 cells after inhibitors; type: cell-based; conditions: starved 14 h, inhibitors 4 h, no insulin; for PM levels of Class II IR mutants: R1020Q, V1054M, A1075D, V1086E, I1143T
Excerpt: FIGS. 4A-E. Dysregulation of IR endocytosis as a potential contributing factor to human insulin resistance syndromes. (FIG. 4A) Representative images of liver specimens from human non-diabetes and diabetes patients stained with DAPI (blue) and anti-IR (red) and anti-ZO-1 (green) antibodies. Scale bars, 40 μm. (FIG. 4B) Quantification of the percentage of cells with positive IR PM signals in liver specimens in FIG. 4A (mean±SD; *p<0.0001). (FIG. 4C) HepG2 cells stably expressing IR-GFP R1020Q, V1054M, A1075D, V1086E, or I1143T were serum starved and stained with anti-GFP and anti-RAB7 antibodies. Scale bar, 5 μm. (FIG. 4D) Quantification of the ratios of PM and IC IR-GFP signals of cells in FIG. 4C (mean±SD; *p<0.0001). (FIG. 4E) Targeting feedback regulation of IR endocytosis for diabetes treatment. Left panel depicts the feedback regulation of IR endocytosis by ERK1/2 and SHP2 during unperturbed insulin signaling.
FIGS. 9A-D. Characterization of IR mutations found in human patients. (FIG. 9A) HepG2 cells expressing IR-GFP Class I mutants (P997T, V1012M, A1055V, K1095E, R1119Q, H1157R, R1191Q, Y1361C, or R1378Q) were starved for 14 h, treated with the indicated inhibitors for 4 h, and stained with anti-GFP (IR; green) and DAPI (blue). Scale bar, 5 m. (FIG. 9B) HepG2 cells expressing IR-GFP Class II mutants (R1020Q, V1054M, A1075D, V1086E, or I1143T) were analyzed as described in FIG. 9A. (FIG. 9C) HepG2 cells expressing IR-GFP Class III mutants (A1162E or W1220L) were analyzed as described in A. (FIG. 9D) HepG2 cells expressing IR-GFP WT, R1020Q, or V1054M were serum starved for 14 h and treated with DMSO or 80 μM Dynasore for 4 h. Cell lysates were blotted with the indicated antibodies.
Mutations of IR are known to cause inherited severe insulin resistance syndromes, but the mechanisms by which these mutations affect IR function have not been systematically explored. HepG2 cell lines were generated which stably expressed IR mutants fused to GFP, and the subcellular localization of these IR-GFP proteins was examined (FIGS. 9A-C and Table 1).
There were three distinct classes of IR mutants based on their subcellular localization in the unstimulated state. Class I mutants localized to the PM. […] Thus, certain IR mutations found in human insulin resistance syndromes perturbs IR kinase regulation and causes premature IR endocytosis.
Cellular localization of IR mutants was examined after inhibiting the SHP2 or MAPK pathways (FIGS. 4C-D, and FIGS. 9A-C).
Indirect immunofluorescence microscopy was performed on cells grown on coverslips and fixed in cold methanol at −20° C. for 10 min. The fixed cells were incubated with PBS for 30 min and 3% BSA in 0.1% PBST for 1 h, and then treated with diluted antibodies in 0.3% BSA in 0.1% PBST at 4° C. overnight. After being washed, cells were incubated with fluorescent secondary antibodies and mounted on microscope slides in ProLong Gold Antifade reagent with DAPI (Invitrogen). Images of fixed cells were acquired as a series of 0.4 m stacks with a DeltaVision® system (Applied Precision®, Issaquah, Wash.). Raw images were deconvolved using the iterative algorithm implemented in the softWoRx® software (Applied Precision®, Issaquash, Wash.). The central section of a 0.4 μm z-stack containing 3 contiguous focal planes was used for quantification. The cell edges were defined with Image J. The whole cell signal intensity (WC) and intracellular signal intensity (IC) were measured. The plasma membrane signal intensity (PM) was calculated by subtracting IC from WC. Identical exposure times and magnifications were used for all comparative analyses.

[3] = test system: HepG2 cells expressing IR-GFP WT; assay: insulin-activated IR endocytosis in HepG2 cells expressing IR-GFP WT (immunofluorescence, PM/IC ratio); type: cell-based; conditions: serum starved 14 h, inhibitor 2 h, then 100 nM insulin 20 min; BMS536924 2 μM, U0126 40 μM, SHP099 40 μM, AKT inhibitor VIII 5 μM, BI2536 200 nM, Reversine 1 μM
Description: (FIG. 2A) HepG2 cells expressing IR-GFP WT were starved, treated with the indicated inhibitors for 2 h, treated without or with 100 nM insulin for 20 min, and stained with anti-GFP (IR; green) and DAPI (blue). […] Quantification of the ratios of PM and IC IR-GFP signals of cells was shown (mean±SD; *p<0.0001).
To test whether the MAPK pathway and SHP2 might regulate the IRS1/2-AP2 interaction and IR endocytosis through modulating IRS1/2 phosphorylation patterns, the effects of inhibiting SHP2 or the MAPK pathway on insulin-activated IR endocytosis were examined (FIG. 2A and FIG. 7A).
For testing the effects of kinase inhibitors on IR endocytosis, the cells were serum starved for 14 h and inhibitors were added at 2 h before insulin treatment.

[4] = target: T1, AP2M1 (residues 160-435); assay: isothermal titration calorimetry (ITC) of IRS1 peptides with AP2M1; type: binding; conditions: 20° C., HEPES buffer pH 7.5
Excerpt: The unphosphorylated and phosphorylated IRS1 peptides containing 612YMPMS (SEQ ID NO:7) FIG. 7B) were chemically synthesized and used for in vitro pull-down assays to examine their binding to AP2M1 (FIG. 2B). […] Thus, phosphorylation of IRS1 by ERK1/2 enhances IRS1 binding to AP2M1.
The AP2M1 fragment (residues 160-435) was cloned into a modified pET28a that introduced an N-terminal His6-tag followed by a thrombin cleavage site. The plasmid was transformed into BL21(DE3) E. coli cells. Protein expression was induced by 0.2 mM IPTG at 20° C. overnight. The harvested pellets were lysed in the lysis buffer II (20 mM Tris-HCl, pH 7.5, 500 mM NaCl, 20 mM Imidazole, 1 mM PMSF). After sonication, lysates were cleared by centrifugation at 4° C. The supernatants were filtered by […] filter and incubated with pre-equilibrated Ni2+-NTA beads (Qiagen®). […]
as §1

Row | Compound | PM levels of Class II IR mutants [2] | insulin-activated IR endocytosis (ratio of PM and IC IR-GFP signals) [3] | other results
1 | pYMPMS: singly phosphorylated IRS1 peptide CHTDDGpYMPMSPGVA (SEQ ID NO:12) (CHTDDG[pY]MPMSPGVA) |  |  | binding to AP2M1 [1]: abolished AP2M1 binding
2 | O=C(N/N=C/c1ccc(O)c(O)c1)c1cc2ccccc2cc1O [dynasore] | elevated the IR signal of Class II mutants at the PM |  | 
3 | Cc1cc(N2CCOCC2)cc2[nH]c(-c3c(NC[C@@H](O)c4cccc(Cl)c4)cc[nH]c3=O)nc12 [BMS536924] | restored Class II IR mutants at the PM | blocked IR endocytosis | 
4 | N#CC(=C(/N)Sc1ccccc1N)/C(C#N)=C(\N)Sc1ccccc1N [Compound U0126] | significantly enhanced the PM levels of Class II IR mutants | blocked IR endocytosis | PM levels of Class I and III IR mutants [2]: not those of Class I and III IR mutants
5 | c1nc2nc(Nc3ccc(N4CCOCC4)cc3)nc(NC3CCCCC3)c2[nH]1 [Reversine] |  | did not appreciably inhibit IR endocytosis | 
6 | AMPAS: mutant IRS1 peptide CHTDDGAMPASPGVA (SEQ ID NO:10), Y612 and M615 replaced by alanine |  |  | binding to AP2M1 [1]: did not
7 | CHTDDGYMPMSPGVA [YMPMS] |  |  | Kd [4]: 2030 nM
8 | O=c1[nH]c2ccccc2n1C1CCN(Cc2ccc(-c3nc4cc5[nH]cnc5cc4nc3-c3ccccc3)cc2)CC1 [AKTi, VIII] |  | did not affect IR endocytosis | 
